Each structure is given as a SMILES string.

In series [1] the target is T1, Glucagon receptor (Homo sapiens, UniProt P47871). Put plainly: Displacement of [125]glucagon from human glucagon receptor expressed in CHO cells. The class given is cell-based.
In series [2] the target is T1, Glucagon receptor. Briefly: Antagonist activity at human glucagon receptor transfected in CHO cells assessed as inhibition of glucagon-induced cAMP accumulation. Type of series: functional, cell-based.
Series [3] concerns the target T2, Gastric inhibitory polypeptide receptor (Homo sapiens, UniProt P48546).
T2 sequence (P48546 whole entry): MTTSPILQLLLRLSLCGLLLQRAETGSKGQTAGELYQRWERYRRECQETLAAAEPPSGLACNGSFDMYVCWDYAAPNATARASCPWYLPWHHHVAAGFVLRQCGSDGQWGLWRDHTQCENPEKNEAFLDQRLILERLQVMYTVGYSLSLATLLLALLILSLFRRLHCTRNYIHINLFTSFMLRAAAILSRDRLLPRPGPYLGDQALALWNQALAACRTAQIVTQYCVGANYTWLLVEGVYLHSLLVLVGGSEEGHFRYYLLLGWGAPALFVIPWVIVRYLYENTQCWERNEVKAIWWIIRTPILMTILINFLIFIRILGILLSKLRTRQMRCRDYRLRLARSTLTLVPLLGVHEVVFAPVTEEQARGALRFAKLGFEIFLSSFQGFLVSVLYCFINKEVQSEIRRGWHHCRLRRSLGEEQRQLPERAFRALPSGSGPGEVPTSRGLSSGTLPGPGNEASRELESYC
Put plainly: Antagonist activity at human GIP receptor transfected in CHO cells assessed as inhibition of […] cAMP accumulation. The class given is functional, cell-based.

Series [4] can be described thus: Plasma clearance in mouse at 1 mg/kg, iv and 2 mg/kg, po. The class given is ADME, organism-based.
Series [5] is described as follows: Volume of distribution at steady state in mouse at 1 mg/kg, iv and 2 mg/kg, po. The settings on record: in vivo, read-out: Vdss. The class given is ADME, organism-based.
Series [6] can be described thus: Half life in mouse at 1 mg/kg, iv and 2 mg/kg, po. As to conditions: in vivo; call rule not given here. The class given is ADME, organism-based.
Series [7] is described as follows: Cmax in mouse at 1 mg/kg, iv and 2 mg/kg, po. The settings on record: in vivo. The class given is ADME, organism-based.
A short description of series [8]: Bioavailability in mouse at 1 mg/kg, iv and 2 mg/kg, po. The class given is ADME, organism-based. The settings on record: in vivo.
For series [9], the system named is CHO. Put plainly: Selectivity for human glucagon receptor over human GIP receptor expressed in CHO cells by glucagon-stimulated cAMP accumulation assay. Type of series: cell-based.
The test system of series [10] is Mus musculus. Briefly: Inhibition of glucagon-induced hyperglycemic response in transgenic mouse expressing human glucagon receptor at 3 mg/kg, po after 24 mins relative to control. The class given is functional. The settings on record: 0.4 h.
The test system of series [11] is Mus musculus. Put plainly: Inhibition of glucagon-induced hyperglycemic response in transgenic mouse expressing human glucagon receptor at 10 mg/kg, po after 24 mins relative to control. The class given is functional. As to conditions: 0.4 h.
Series [12] concerns Mus musculus. Briefly: Inhibition of glucagon-induced hyperglycemic response in transgenic mouse expressing human glucagon receptor at 30 mg/kg, po after 24 mins relative to control. The class given is functional. The settings on record: 0.4 h.
Series [13] relates to Mus musculus. Briefly: Decrease in non-fasting blood glucose level in transgenic diabetic mouse expressing human glucagon receptor at 3 mg/kg, po after 3 days relative to lean control. Type of series: functional. Further details: scale not given: the % may be the effect or the level left.
The subject of series [14] is Mus musculus. Briefly: Decrease in non-fasting blood glucose level in transgenic diabetic mouse expressing human glucagon receptor at 3 mg/kg, po after 10 days relative to lean control. Further details: scale not given: the % may be the effect or the level left. The class given is functional.
Series [15] deals with Mus musculus. Put plainly: Decrease in non-fasting blood glucose level in transgenic diabetic mouse expressing human glucagon receptor at 10 mg/kg, po after 3 days relative to lean control. Type of series: functional. Further details: scale not given: the % may be the effect or the level left.
Series [16] deals with Mus musculus. Put plainly: Decrease in non-fasting blood glucose level in transgenic diabetic mouse expressing human glucagon receptor at 10 mg/kg, po after 10 days relative to lean control. Type of series: functional. Further details: scale not given: the % may be the effect or the level left.

T1 sequence (P47871 whole entry): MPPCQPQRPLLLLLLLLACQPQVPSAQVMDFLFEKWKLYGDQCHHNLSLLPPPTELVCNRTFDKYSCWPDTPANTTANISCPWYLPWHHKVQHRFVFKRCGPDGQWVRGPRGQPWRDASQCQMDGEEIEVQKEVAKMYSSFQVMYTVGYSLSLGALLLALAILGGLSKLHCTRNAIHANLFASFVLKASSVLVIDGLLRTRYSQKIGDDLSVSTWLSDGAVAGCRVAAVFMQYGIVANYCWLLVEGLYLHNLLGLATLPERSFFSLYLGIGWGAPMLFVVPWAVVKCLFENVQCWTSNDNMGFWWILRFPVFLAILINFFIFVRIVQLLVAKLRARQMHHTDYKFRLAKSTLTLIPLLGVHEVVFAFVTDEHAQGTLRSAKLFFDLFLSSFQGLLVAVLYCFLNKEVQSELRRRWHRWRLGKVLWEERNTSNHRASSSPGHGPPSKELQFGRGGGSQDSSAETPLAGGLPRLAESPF

For `O=C(Nc1nn[nH]n1)c1ccc2c(c1)CCC2N(C(=O)Nc1ccc(OC(F)(F)F)cc1)c1ccc(C2CCCCC2)cc1` (stereo not given), the IC50 in series [1] amounted to 22 nM; in [2] (read-out: IC50) it was 85 nM.

On to `CC(C)(C)[C@H]1CC[C@H](N(C(=O)Nc2ccc(OC(F)(F)F)cc2)C2CCOc3cc(C(=O)NCCC(=O)O)ccc32)CC1` (stereo not given in full), for which the 50% inhibitory concentration (IC50) in series [3] was determined as 217 nM. In series [4], this molecule had a clearance of 13 mL/min/kg. For the same molecule, the Vd in series [5] was 1.4 L/kg. The same molecule had a half-life in [6] of 3.4 h. For the same molecule, the Cmax in series [7] worked out at 60 nM. The bioavailability in series [8] turned out to be 15%.

On to `CC(C)(C)[C@H]1CC[C@H](N(C(=O)Nc2cc(Cl)cc(Cl)c2)C2CCc3cc(C(=O)Nc4nn[nH]n4)ccc32)CC1` (stereo not given in full), for which the values for the concentration for half-maximal inhibition (IC50) in [1], in [2] (read-out: IC50) and in series [3] were 4.9 nM, 5.9 nM and 3530 nM, respectively. In [9], this molecule came in with a Fold change above 500.

Consider `CC(C)(C)[C@H]1CC[C@H](N(C(=O)Nc2ccc(OC(F)(F)F)cc2)C2CCc3cc(C(=O)Nc4nn[nH]n4)ccc32)CC1` (stereo not given in full), for which the IC50 in series [3] came out at 296 nM.

Consider `CC(C)(C)[C@H]1CC[C@H](N(C(=O)c2ccc(OC(F)(F)F)cc2)C2CCc3cc(C(=O)NCCC(=O)O)ccc32)CC1` (stereo not given in full), for which the figures for the IC50 in [1] and in series [2] (read-out: IC50) were 130 nM and 2780 nM, respectively.

As to `CC(C)(C)[C@H]1CC[C@H](N(C(=O)Nc2cc(Cl)cc(Cl)c2)C2CCc3cc(C(=O)NCCC(=O)O)ccc32)CC1` (stereo not given in full), the IC50 in series [1] was 10 nM; in [2] (read-out: IC50), 11 nM; in series [3], 1280 nM. The Fold change in series [9] was above 100.

`O=C(Nc1nnn[nH]1)c1ccc2c(c1)CCC2N(C(=O)Nc1ccc(OC(F)(F)F)cc1)c1ccc(OC(F)(F)F)cc1` (stereo not given): the values for the IC50 in series [1] and in [2] (read-out: IC50) were 62 nM and 3430 nM, respectively.

`CC(C)(C)[C@H]1CC[C@H](N(C(=O)Nc2ccc(OC(F)(F)F)cc2)C2CCCc3cc(C(=O)NCCC(=O)O)ccc32)CC1` (stereo not given in full): the IC50 in series [3] came out at 171 nM. The molecule also gave a clearance in series [4] of 9 mL/min/kg. Moreover, the Vd in series [5] turned out to be 0.9 L/kg. Moreover, the half-life in series [6] is 2.5 h. Further, in series [7], the highest level (Cmax) was 90 nM. This molecule came in with a bioavailability in [8] of 10%.

Take `CC(C)(C)[C@H]1CC[C@H](N(C(=O)Nc2ccc(OC(F)(F)F)cc2)C2CCc3cc(C(=O)NCCC(=O)O)ccc32)CC1` (stereo not given in full): the IC50 in series [3] stood at 132 nM. Besides, in [4], the clearance is 9 mL/min/kg. For the same molecule, the Vd in series [5] is 1.6 L/kg. This molecule gave a half-life in series [6] of 5.6 h. The same molecule returned a Cmax in [7] of 130 nM. The same molecule had a bioavailability in series [8] of 17%. In [10], the inhibition in vivo at 3 mg/kg was determined as 51%. Moreover, in [11], the inhibition in vivo at 10 mg/kg was 59%. Also, the inhibition in vivo at 30 mg/kg in series [12] was 122%. Further, the Activity in [13] was determined as 72%; in series [14], 87%; in series [15], 99%; in [16] it was 106%.

Consider `CC(C)(C)[C@H]1CC[C@@H](N(C(=O)Nc2ccc(OC(F)(F)F)cc2)C2CCc3cc(C(=O)Nc4nn[nH]n4)ccc32)CC1` (single isomer, unassigned), for which the figures for the IC50 in series [1], in series [2] (read-out: IC50) and in [3] were 1.01 nM, 18 nM and 435 nM, respectively.

As for `CC(C)(C)[C@H]1CC[C@H](N(C(=O)c2ccc(OC(F)(F)F)cc2)C2CCc3cc(C(=O)Nc4nnn[nH]4)ccc32)CC1` (stereo not given in full), the values for the IC50 in series [1], in series [2] (read-out: IC50) and in [3] were 49 nM, 1470 nM and 610 nM, respectively.

With `CC(C)(C)[C@H]1CC[C@@H](N(C(=O)Nc2ccc(OC(F)(F)F)cc2)C2CCc3cc(C(=O)Nc4nn[nH]n4)ccc32)CC1` (stereo not given in full), the figures for the concentration for half-maximal inhibition (IC50) in series [1] and in series [2] (read-out: IC50) were 216 nM and 795 nM, respectively.

For the molecule `CC(C)(C)[C@H]1CC[C@H](N(C(=O)Nc2cc(C(F)(F)F)cc(C(F)(F)F)c2)C2CCc3cc(C(=O)Nc4nnn[nH]4)ccc32)CC1` (stereo not given in full), the figures for the IC50 in series [1], in series [2] (read-out: IC50) and in series [3] were 7.6 nM, 61 nM and 4260 nM, respectively.

With `CC(C)(C)[C@H]1CC[C@H](N(C(=O)Nc2ccc(OC(F)(F)F)cc2)C2CCCc3cc(C(=O)Nc4nn[nH]n4)ccc32)CC1` (stereo not given in full), in [3], the IC50 came to 178 nM. This molecule registered a clearance in [4] of 6.4 mL/min/kg. Further, in [5], the Vd came out at 1.4 L/kg. In [6], this molecule had a half-life of 8 h. In [7], this molecule displayed a peak concentration (Cmax) of 40 nM. Besides, in [8], the bioavailability was 1.4%.

Turning to `CC(C)(C)[C@H]1CC[C@H](N(C(=O)Nc2cc(C(F)(F)F)cc(C(F)(F)F)c2)C2CCc3cc(C(=O)NCCC(=O)O)ccc32)CC1` (stereo not given in full), the figures for the IC50 in series [1], in series [2] (read-out: IC50) and in series [3] were 28 nM, 46 nM and 2020 nM, respectively.

Regarding `CC(C)(C)[C@H]1CC[C@H](N(C(=O)Cc2ccc(OC(F)(F)F)cc2)C2CCc3cc(C(=O)NCCC(=O)O)ccc32)CC1` (stereo not given in full), the IC50 in series [1] came out at 18 nM; in [2] (read-out: IC50), 500 nM; in series [3], 286 nM.

For the molecule `O=C(O)CCNC(=O)c1ccc2c(c1)CCC2N(C(=O)Nc1ccc(OC(F)(F)F)cc1)c1ccc(C2CCCCC2)cc1` (stereo not given), the IC50 was determined as 68 nM in series [1] and 189 nM in series [2] (read-out: IC50).

As to `CC(C)(C)[C@H]1CC[C@@H](N(C(=O)Nc2ccc(OC(F)(F)F)cc2)C2CCc3cc(C(=O)NCCC(=O)O)ccc32)CC1` (single isomer, unassigned), the IC50 amounted to 3.8 nM in [1], 46 nM in series [2] (read-out: IC50) and 603 nM in series [3].

As for `CC(C)(C)[C@H]1CC[C@@H](N(C(=O)Nc2ccc(OC(F)(F)F)cc2)C2CCc3cc(C(=O)NCCC(=O)O)ccc32)CC1` (stereo not given in full), in [1], the IC50 came to 3380 nM.

In the case of `CC(C)(C)[C@H]1CC[C@H](N(C(=O)Cc2ccc(OC(F)(F)F)cc2)C2CCc3cc(C(=O)Nc4nnn[nH]4)ccc32)CC1` (stereo not given in full), the IC50 in series [1] stood at 4.8 nM; in [2] (read-out: IC50), 67 nM; in series [3], 118 nM.

`CC(C)(C)[C@H]1CC[C@H](N(C(=O)Nc2ccc(OC(F)(F)F)cc2)C2CCOc3cc(C(=O)Nc4nn[nH]n4)ccc32)CC1` (stereo not given in full): the IC50 in series [3] was 117 nM.

With `O=C(O)CCNC(=O)c1ccc2c(c1)CCC2N(C(=O)Nc1ccc(OC(F)(F)F)cc1)c1ccc(OC(F)(F)F)cc1` (stereo not given), the IC50 was 820 nM in series [1] and “Not Active” in [2] (cho).

For the origin of these results see ChEMBL document CHEMBL1146306, “Design and synthesis of conformationally constrained tri-substituted ureas as potent antagonists of the human glucagon receptor” (Bioorg Med Chem Lett, 2007).
